This is an account of results in patent US8569267B2, “Tetracyclic tetrahydrofuran derivatives containing cyclic amine side chain” (Janssen Pharmaceutica, NV, priority 2005, dated 2013).

The structures appear in SMILES notation.

The target in assay [1] is T1, NET (norepinephrine transporter) (Rattus norvegicus, UniProt Q63380).
T1 construct: Cortex from rat brain was collected and homogenised; from tissue; host or cells: rat brain cortex
As to the kind of experiment: In vitro determination of NET reuptake inhibition ([3H]Nixosetine binding, rat brain cortex). The conditions noted are these: rat brain cortex; for IC50: read-out: NET pIC50 (converted). Summed up: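 Competition curves and percentage specific binding came from scintillation counting of filter-trapped radioactivity. The membranes were rat cortical homogenate in pH 7.4 Tris buffer with 120 mM NaCl and 5 mM KCl. Test compounds competed with [3H]nisoxetine for binding.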

Assay [2] addresses T2, human Dopamine D2L receptor (Homo sapiens, UniProt P14416).
T2 construct: expressed in transfected cells; host or cells: CHO cells
As to the kind of experiment: In vitro binding affinity for human D2L receptor ([3H]Spiperone binding). The conditions noted are these: human D2L receptor-transfected CHO cell membranes; for IC50: read-out: D2L pIC50 (converted). In a few lines: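 Competition curves were expressed as percent specific binding, measured by scintillation counting after filtration onto GF/B filters and ice-cold Tris washes. Test compounds competed with [3H]Spiperone, added from a 2 nmol/L dilution, for 30 min at 37° C on transfected CHO membranes in pH 7.7 Tris-HCl salt buffer. Butaclamol at 10^−6 mol/l final marked non-specific binding.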

The target in assay [3] is T3, human cloned 5-HT2A receptor, expressed in L929 cells (Homo sapiens, UniProt P28223).
T3 construct: expressed in transfected cells; host or cells: L929 cells
T3 sequence (P28223 whole entry): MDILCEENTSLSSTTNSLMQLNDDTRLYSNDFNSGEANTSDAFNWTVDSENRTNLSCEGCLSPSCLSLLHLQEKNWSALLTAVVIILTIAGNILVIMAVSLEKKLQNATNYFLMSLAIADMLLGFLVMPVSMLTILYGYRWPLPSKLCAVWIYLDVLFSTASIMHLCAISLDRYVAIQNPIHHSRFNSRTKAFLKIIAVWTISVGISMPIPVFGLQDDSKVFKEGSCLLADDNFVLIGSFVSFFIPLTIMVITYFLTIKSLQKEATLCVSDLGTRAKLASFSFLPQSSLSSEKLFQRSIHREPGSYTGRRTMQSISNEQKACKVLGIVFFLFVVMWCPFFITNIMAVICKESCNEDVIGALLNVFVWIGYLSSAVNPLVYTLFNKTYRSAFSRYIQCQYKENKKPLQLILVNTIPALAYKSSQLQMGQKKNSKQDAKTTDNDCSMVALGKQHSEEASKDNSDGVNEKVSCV
As to the kind of experiment: In vitro binding affinity for 5-HT2A receptor ([125I]R91150 radioligand binding). Conditions: human cloned 5-HT2A receptor in L929 cells, [125I]R91150; for IC50: read-out: 5-HT2A pIC50 (converted). The protocol: In Vitro Binding Affinity for 5-HT2A and 5-HT2C Receptors
The interaction of the compounds of Formula (I) with 5-HT2A and 5-HT2C receptors was assessed in in vitro radioligand binding experiments. […] During the incubation, the radioligands bind to the receptor. When equilibrium of binding is reached, the receptor bound radioactivity is separated from the non-bound radioactivity, and the receptor bound activity is counted. The interaction of the test compounds with the receptors is assessed in competition binding experiments. Various concentrations of the test compound are added to the incubation mixture containing the tissue preparation and the radioligand. Binding of the radioligand will be inhibited by the test compound in proportion to its binding affinity and its concentration. The affinities of the compounds for the 5-HT2 receptors were measured by means of radioligand binding studies conducted with: (a) human cloned 5-HT2A receptor, expressed in L929 cells using [^125I]R91150 as radioligand and (b) human cloned 5-HT2C receptor, expressed in CHO cells using [^3H]mesulergine as radioligand.

The target of assay [4] is T4, human cloned 5-HT2C receptor, expressed in CHO cells (Homo sapiens, UniProt P28335).
T4 construct: expressed in transfected cells; host or cells: CHO cells
T4 sequence (P28335 33-458): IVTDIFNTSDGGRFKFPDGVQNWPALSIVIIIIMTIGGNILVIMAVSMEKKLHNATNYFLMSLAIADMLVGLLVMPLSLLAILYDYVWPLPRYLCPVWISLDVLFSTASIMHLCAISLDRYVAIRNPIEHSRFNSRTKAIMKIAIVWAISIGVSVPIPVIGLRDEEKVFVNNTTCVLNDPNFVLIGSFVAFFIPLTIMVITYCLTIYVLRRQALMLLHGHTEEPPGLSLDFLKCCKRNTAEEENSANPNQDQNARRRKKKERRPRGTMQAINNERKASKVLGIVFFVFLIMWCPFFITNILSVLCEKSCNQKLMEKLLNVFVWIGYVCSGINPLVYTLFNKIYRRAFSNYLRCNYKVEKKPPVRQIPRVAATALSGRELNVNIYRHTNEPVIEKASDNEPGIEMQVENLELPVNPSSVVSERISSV
Description: In vitro binding affinity for 5-HT2C receptor ([3H]mesulergine radioligand binding). The conditions noted are these: human cloned 5-HT2C receptor; for IC50: read-out: 5-HT2C pIC50 (converted). Summed up:
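Receptor-bound radioligand counted after separation from unbound label once equilibrium is reached. Test compound added across a concentration range to tissue preparation plus radioligand; inhibition of binding reflects affinity and concentration.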

T1 sequence (Q63380 1-617): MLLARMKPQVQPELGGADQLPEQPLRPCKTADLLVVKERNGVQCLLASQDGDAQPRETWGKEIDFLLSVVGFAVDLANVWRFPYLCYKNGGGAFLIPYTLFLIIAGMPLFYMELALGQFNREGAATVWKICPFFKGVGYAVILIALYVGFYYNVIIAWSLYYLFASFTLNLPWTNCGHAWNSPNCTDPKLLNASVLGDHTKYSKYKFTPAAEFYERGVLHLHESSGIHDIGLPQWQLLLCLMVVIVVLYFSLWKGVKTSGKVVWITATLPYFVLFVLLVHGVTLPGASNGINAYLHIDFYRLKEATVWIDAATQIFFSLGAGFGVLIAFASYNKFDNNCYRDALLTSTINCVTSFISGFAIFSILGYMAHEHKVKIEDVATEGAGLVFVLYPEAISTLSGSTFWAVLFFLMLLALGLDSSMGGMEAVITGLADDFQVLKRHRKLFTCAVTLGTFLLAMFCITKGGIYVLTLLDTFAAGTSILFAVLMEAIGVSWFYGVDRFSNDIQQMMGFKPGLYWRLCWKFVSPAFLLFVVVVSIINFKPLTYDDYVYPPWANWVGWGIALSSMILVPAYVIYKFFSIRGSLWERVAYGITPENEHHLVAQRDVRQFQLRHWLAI
T2 sequence (P14416 whole entry): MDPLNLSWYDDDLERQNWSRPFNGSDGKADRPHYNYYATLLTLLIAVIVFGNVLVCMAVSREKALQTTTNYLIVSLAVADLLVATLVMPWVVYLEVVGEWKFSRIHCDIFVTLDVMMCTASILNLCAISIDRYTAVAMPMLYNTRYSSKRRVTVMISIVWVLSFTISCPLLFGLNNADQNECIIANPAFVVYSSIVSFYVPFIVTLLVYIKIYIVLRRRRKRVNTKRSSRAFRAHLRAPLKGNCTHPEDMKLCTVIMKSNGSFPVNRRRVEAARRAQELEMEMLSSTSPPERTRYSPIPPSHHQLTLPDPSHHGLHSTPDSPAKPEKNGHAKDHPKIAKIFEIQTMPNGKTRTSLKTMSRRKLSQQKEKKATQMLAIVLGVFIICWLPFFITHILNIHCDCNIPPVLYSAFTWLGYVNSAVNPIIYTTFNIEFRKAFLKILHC

Take `COc1ccccc1OC1CCN(CC2CC3c4ccccc4Cc4ccc(F)cc4C3O2)C1` (mixture of isomers) [Compound 32]: the IC50 in assay [1] is 7410 nM; in assay [2] it was 7.41 nM; in assay [3], 2.19 nM; in assay [4], 0.912 nM.

With `COc1ccc(OC2CCN(CC3CC4c5ccccc5Cc5ccc(F)cc5C4O3)C2)cc1` (mixture of isomers) [Compound 33], the IC50 in assay [1] was 4900 nM; in assay [2], 7.94 nM; in assay [3] it was 6.17 nM; in assay [4] it was 2 nM.

In the case of `Fc1ccc2c(c1)C1OC(CN3CCC(Oc4ccccc4F)C3)CC1c1ccccc1C2` (mixture of isomers) [Compound 34], the IC50 in assay [1] was 6170 nM; in assay [2] it was 10 nM; in assay [3], 7.24 nM; in assay [4], 0.427 nM.

For the compound `Fc1ccc(OC2CCN(CC3CC4c5ccccc5Cc5ccc(F)cc5C4O3)C2)cc1` (mixture of isomers) [Compound 36], the IC50 is 4070 nM in assay [1], 21.9 nM in assay [2], 12.3 nM in assay [3] and 4.68 nM in assay [4].

Regarding `Fc1ccc2c(c1)C1OC(CN3CCC(Oc4cccc(C(F)(F)F)c4)C3)CC1c1ccccc1C2` (mixture of isomers) [Compound 37], the IC50 in assay [1] is more than 10000 nM; in assay [2] it was 32.4 nM; in assay [3], 22.4 nM; in assay [4] it was 7.94 nM.

As for `COCC1CCCN1CC1CC2c3ccccc3Cc3ccc(F)cc3C2O1` (mixture of isomers) [Compound 38], the IC50 in assay [1] is 5130 nM; in assay [2] it was 224 nM; in assay [3], 13.5 nM; in assay [4], 15.5 nM.

Consider `OC1(c2ccc(F)cc2)CCN(CC2CC3c4ccccc4Cc4ccc(F)cc4C3O2)C1` (mixture of isomers) [Compound 41], for which the IC50 in assay [1] was 7080 nM; in assay [2] it was 4.27 nM; in assay [3], 1.82 nM; in assay [4] it was 2.29 nM.

Turning to `OC(COCc1ccco1)CN1CCN(CC2CC3c4ccccc4Cc4ccc(F)cc4C3O2)CC1` (mixture of isomers) [Compound 55], the IC50 in assay [1] was 1820 nM; in assay [2], 8.13 nM; in assay [3], 2.69 nM; in assay [4], 3.16 nM.

In the case of `OC(COc1ccc(F)cc1)CN1CCN(CC2CC3c4ccccc4Cc4ccc(F)cc4C3O2)CC1` (mixture of isomers) [Compound 57], the IC50 in assay [1] is more than 10000 nM; in assay [2], 18.6 nM; in assay [3] it was 7.24 nM; in assay [4], 17.8 nM.

With `O=C(C1CCCO1)N1CCN(CC2CC3c4ccccc4Cc4ccc(F)cc4C3O2)CC1` (mixture of isomers) [Compound 80], the IC50 in assay [1] is 3720 nM; in assay [2] it was 44.7 nM; in assay [3] it was 1.07 nM; in assay [4], 16.6 nM.

On to `OCC1CN(CC2CC3c4ccccc4Cc4ccc(F)cc4C3O2)CCO1` (mixture of isomers) [Compound 128, [2R-(2aα, 3aα, 12bβ)]-(3′RS)-[4-(11-fluoro-3,3a,8,12b-tetrahydro-2H-1-oxa-dibenzo[e,h]azulen-2-ylmethyl)-morpholin-2-yl]-methanol.oxalate (1:1)], for which the IC50 in assay [1] was 2630 nM; in assay [2], 18.6 nM; in assay [3] it was 4.37 nM; in assay [4], 11.7 nM.

`CN(CCO)CCC1CN(CC2CC3c4ccccc4Cc4ccc(F)cc4C3O2)CCO1` (mixture of isomers) [Compound 133]: the IC50 was 933 nM in assay [1], 355 nM in assay [2], 49 nM in assay [3] and 34.7 nM in assay [4].

`OCC1CCCCN1CC1CC2c3ccccc3Cc3ccc(F)cc3C2O1` (mixture of isomers) [Compound 146]: the IC50 was more than 10000 nM in assay [1], 81.3 nM in assay [2], 16.6 nM in assay [3] and 11.5 nM in assay [4].

On to `CCOC(=O)C1CCCCN1CC1CC2c3ccccc3Cc3ccc(F)cc3C2O1` (mixture of isomers) [Compound 158], for which the IC50 in assay [1] is more than 10000 nM; in assay [2], 355 nM; in assay [3] it was 23.4 nM; in assay [4], 33.1 nM.

For `N#CCCC1CCCN(CC2CC3c4ccccc4Cc4ccc(F)cc4C3O2)C1` (mixture of isomers) [Compound 169], the IC50 in assay [1] was 1620 nM; in assay [2] it was 13.8 nM; in assay [3] it was 3.16 nM; in assay [4], 2.88 nM.

In the case of `COC(=O)C(Cc1ccc(Cl)cc1)NC(=O)C1CCN(CC2CC3c4ccccc4Cc4ccc(F)cc4C3O2)CC1` (mixture of isomers) [Compound 184], the IC50 in assay [1] is 3890 nM; in assay [2] it was 25.1 nM; in assay [3] it was 1.41 nM; in assay [4], 5.75 nM.

Regarding `CCOC(=O)C1CCCCN1C(=O)C1CCN(CC2CC3c4ccccc4Cc4ccc(F)cc4C3O2)CC1` (mixture of isomers) [Compound 205], the IC50 is 8510 nM in assay [1], 12.6 nM in assay [2], less than 10 nM in assay [3] and 4.47 nM in assay [4].

Regarding `CC1CN(CC2CC3c4ccccc4Cc4ccc(F)cc4C3O2)C(C)CN1.O=C(O)C(=O)O` (mixture of isomers) [Compound 280], the “NET pIC50” value in assay [1] is on record as less than 5. In addition, the “D2L pIC50” value in assay [2] is 5.40. Besides, the “5-HT2A pIC50” value in assay [3] was determined as 6.53. Moreover, the “5-HT2C pIC50” value in assay [4] was 6.53.

Regarding `OC1CCN(CC2CC3c4ccccc4Sc4ccc(F)cc4C3O2)C1` (racemic) [Compound 44], the IC50 in assay [1] was 282 nM; in assay [2], 10 nM; in assay [3] it was less than 10 nM; in assay [4] it was 9.33 nM.

Regarding `CN1c2ccccc2C2CC(CN3CCC(O)C3)OC2c2ccccc21` (racemic) [Compound 263], the IC50 in assay [1] is 2880 nM; in assay [2], 550 nM; in assay [3], 251 nM; in assay [4], 13.2 nM.

As to `N#CC1CCCN(C[C@H]2C[C@@H]3c4ccccc4Cc4ccc(F)cc4[C@@H]3O2)CC1.O=C(O)C(=O)O.O=C(O)C(=O)O` (mixture of isomers) [Compound 268], in assay [1], the “NET pIC50” value is given as less than 5. For the same compound, in assay [2], the “D2L pIC50” value is recorded as 7.92. Further, the “5-HT2A pIC50” value in assay [3] is listed as 8.52. The “5-HT2C pIC50” value in assay [4] was 8.24.

With `O=C(O)C(=O)O.OC1CCN(CC2CC3c4ccccc4Oc4ccc(F)cc4C3O2)CC1` (racemic) [Compound 282], in assay [1], the “NET pIC50” value is reported as less than 5. Further, the “D2L pIC50” value in assay [2] amounted to 6.10. Also, in assay [3], the “5-HT2A pIC50” value is 7.00. For the same compound, in assay [4], the “5-HT2C pIC50” value is listed as 6.93.

`COc1ccc2c(c1)C1OC(CN3CCC(O)CC3)CC1c1ccccc1O2.O=C(O)C(=O)O` (racemic) [Compound 287]: the “NET pIC50” value in assay [1] is less than 5. Also, the “D2L pIC50” value in assay [2] turned out to be 6.17. The “5-HT2A pIC50” value in assay [3] was determined as 7.62. Moreover, the “5-HT2C pIC50” value in assay [4] is 6.54.

Regarding `COc1ccc2c(c1)C1OC(CN3CCC(O)CC3)CC1c1ccccc1O2.O=C(O)C(=O)O` (racemic) [Compound 288], the “NET pIC50” value in assay [1] is on record as less than 5. In addition, the “D2L pIC50” value in assay [2] worked out at 6.08. Also, the “5-HT2A pIC50” value in assay [3] stood at 7.18. For the same compound, the “5-HT2C pIC50” value in assay [4] is 6.71.

On to `OC1CCN(C[C@@H]2C[C@@H]3c4ccccc4Sc4ccc(F)cc4[C@H]3O2)C1` (relative stereo) [Compound 43], for which the IC50 was 1700 nM in assay [1], 57.5 nM in assay [2], less than 10 nM in assay [3] and 1.29 nM in assay [4].
